The values that follow come from publication PMC3040889, “Synthesis and Biological Evaluation of Delavayin-C” (Indian Journal of Pharmaceutical Sciences, 2008).

What all share (format): cell-based
For experiment [1], the system named is Psuedomonas aeruginosa. In words: microbe, parasite or virus in culture. To be noted: disc diffusion, 50 μg/ml. On the procedure:
(§1) The synthesized cyclic heptapeptide was screened in vitro for its antibacterial and antifungal activity by using disc diffusion method and tube dilution technique. The antibacterial activity was determined against four bacterial species (B. subtilis, S. aureus, E. coli and P. aeruginosa) and antifungal activity against Candida albican. In the disc diffusion method, the activity studies were carried out according to modified Kirby-Bauer method. Benzyl penicillin and fluconazole were used as standards against bacterial and fungal strains, respectively at a concentration of 50 μg/ml. Nutrient broth and Sabourds agar were used as a medium and dimethylformamide (DMF) was used as a solvent control for carrying out the activity. After preparation of the disc, allowed to stand for 24 h at 37°. The zone of inhibition, observed around the disks after incubation, was measured.
A general note: In agar diffusion tests the substance spreads into inoculated agar from a disc or well.

Experiment [2] has as its system Bacillus subtilis. The experiment is described as follows: microbe, parasite or virus in culture. To be noted: disc diffusion, 50 μg/ml. On the procedure: as §1
For experiment [3], the system named is Escherichia coli. In words: microbe, parasite or virus in culture. To be noted: disc diffusion, 50 μg/ml. The protocol: as §1
The test system of experiment [4] is Staphylococcus aureus. The experiment is described as follows: microbe, parasite or virus in culture. Particulars: disc diffusion, 50 μg/ml. On the procedure: as §1
Experiment [5] relates to Candida albicans. In words: microbe, parasite or virus in culture. Particulars: disc diffusion, 50 μg/ml. The protocol: as §1
Experiment [6] deals with Psuedomonas aeruginosa. In words: tube dilution technique for minimum inhibitory concentration. More on the design: key: (+) indicates presence of growth (no activity); –: absence of growth. To be noted: P. aeruginosa, nutrient broth, 37° for 24 h, turbidity. On the procedure: (§2) Compound inhibiting growth of microorganisms was further tested for minimum inhibitory concentration (MIC). A solution of the compound was prepared in DMF and a series of doubling dilutions prepared with sterile pipettes. To each of a series of sterile stoppered test tubes, a standard volume of nutrient broth medium was added. A control tube containing no antimicrobial agent was included. The inoculum consisting of an overnight broth culture of microorganisms was added to separate tubes. The tubes were incubated at 37° for 24 h and examined for turbidity. The tube with highest dilution showing no turbidity was the one containing compound with MIC.

The subject of experiment [7] is Bacillus subtilis. The description is as above. The arrangement: key: (+) indicates presence of growth (no activity); –: absence of growth. To be noted: B. subtilis, nutrient broth, 37° for 24 h, turbidity. The protocol:
as §2

Experiment [8] deals with Escherichia coli. The experiment is described as above. More on the design: key: (+) indicates presence of growth (no activity); –: absence of growth. Particulars: E. coli, nutrient broth, 37° for 24 h, turbidity. On the procedure: as §2
Experiment [9] deals with Staphylococcus aureus. Described as above. To be noted: S. auereus, nutrient broth, 37° for 24 h, turbidity. More on the design: key: (+) indicates presence of growth (no activity); –: absence of growth. The protocol: as §2
The test system of experiment [10] is Candida albicans. Described as above. Particulars: C. albicans, broth medium, 37° for 24 h, turbidity. More on the design: key: (+) indicates presence of growth (no activity); –: absence of growth. The protocol:
as §2

Where [11] appears, read: 24 h at 37°, DMF solvent control.

SMILES strings stand for the structures. Residues, ends and D or L forms follow the SMILES beside them.

As to `CC1(C)S[C@@H]2[C@H](NC(=O)Cc3ccccc3)C(=O)N2[C@H]1C(=O)O` [Benzyl Penicillin, Benzyl penicillin, reference compound], the zone of inhibition (as a rule, the size of the clear area around the sample on an inoculated plate) at 50 µg/mL in the experiment on Psuedomonas aeruginosa [1] (Pseudomonas aeruginosa, 24 h at 37°, DMF solvent control, read-out: Diameter of zone of inhibition, P. aeruginosa) is 17 mm; in the experiment on Bacillus subtilis [2] (Bacillus subtilis, 24 h at 37°, DMF solvent control, read-out: Diameter of zone of inhibition, B. Subtilis), 15 mm; in the experiment on Escherichia coli [3] (Escherichia coli, 24 h at 37°, DMF solvent control, read-out: Diameter of zone of inhibition, E. coli) it was 16 mm; in the experiment on Staphylococcus aureus [4] (Staphylococcus aureus, 24 h at 37°, DMF solvent control, read-out: Diameter of zone of inhibition, S. auereus), 25 mm. For the same compound, the “Diameter of zone of inhibition, C. albicans” value with Candida albicans [5] (setting [11]) is listed as “-”.
`CC(C)[C@@H]1NC(=O)[C@@H]2CCCN2C(=O)[C@H](Cc2ccc(O)cc2)NC(=O)[C@H](Cc2ccc(O)cc2)NC(=O)[C@H](Cc2ccc(O)cc2)NC(=O)CNC(=O)[C@@H]2CCCN2C1=O` [Compound, delavayin-C, cyclo(gly-tyr-tyr-tyr-pro-val-pro)] (cyclo(GYYYPVP)): the “Presence or absence of growth” value in the experiment on Psuedomonas aeruginosa [6] (1.56 μg/ml), in the experiment with Psuedomonas aeruginosa [6] (3.13 μg/ml), in the experiment on Psuedomonas aeruginosa [6] (6.25 μg/ml), in the experiment with Psuedomonas aeruginosa [6] (12.5 μg/ml), with Psuedomonas aeruginosa [6] (25 μg/ml) and in the experiment with Psuedomonas aeruginosa [6] (50 μg/ml) was “+” each time. Besides, the “Presence or absence of growth” value in the experiment on Psuedomonas aeruginosa [6] (100 μg/ml) is listed as “–”; with Bacillus subtilis [7] (1.56 μg/ml) it was “+”; with Bacillus subtilis [7] (3.13 μg/ml), “+”; in the experiment with Bacillus subtilis [7] (6.25 μg/ml), “+”; in the experiment with Bacillus subtilis [7] (12.5 μg/ml), “+”; in the experiment with Bacillus subtilis [7] (25 μg/ml), “+”. The “Presence or absence of growth” value in the experiment on Bacillus subtilis [7] (50 μg/ml) is “–”; in the experiment with Bacillus subtilis [7] (100 μg/ml), “–”; in the experiment with Escherichia coli [8] (1.56 μg/ml), “+”; in the experiment with Escherichia coli [8] (3.13 μg/ml), “+”; in the experiment on Escherichia coli [8] (6.25 μg/ml), “+”; with Escherichia coli [8] (12.5 μg/ml), “+”. Moreover, the “Presence or absence of growth” value in the experiment with Escherichia coli [8] (25 μg/ml) is on record as “+”; in the experiment with Escherichia coli [8] (50 μg/ml) it was “+”; with Escherichia coli [8] (100 μg/ml), “–”; in the experiment on Staphylococcus aureus [9] (1.56 μg/ml), “+”; with Staphylococcus aureus [9] (3.13 μg/ml), “+”; in the experiment with Staphylococcus aureus [9] (6.25 μg/ml) it was “+”. The “Presence or absence of growth” value with Staphylococcus aureus [9] (12.5 μg/ml), with Staphylococcus aureus [9] (25 μg/ml), with Staphylococcus aureus [9] (50 μg/ml), in the experiment with Candida albicans [10] (1.56 μg/ml), in the experiment with Candida albicans [10] (3.13 μg/ml) and with Candida albicans [10] (6.25 μg/ml) was “+” throughout. Moreover, the “Presence or absence of growth” value in the experiment with Candida albicans [10] (12.5 μg/ml) is recorded as “+”; in the experiment with Candida albicans [10] (25 μg/ml), “+”; in the experiment on Candida albicans [10] (50 μg/ml) it was “–”; in the experiment with Candida albicans [10] (100 μg/ml), “–”. For the same compound, the “activity against P. aeruginosa when compared with standard drug benzyl penicillin (in words)” value in the experiment on Psuedomonas aeruginosa [1] was “less activity”. Also, the “Diameter of zone of inhibition, P. aeruginosa” value in the experiment with Psuedomonas aeruginosa [1] (setting [11]) was found to be 11 mm. The “activity against B. subtilis when compared with standard drug benzyl penicillin (in words)” value in the experiment with Bacillus subtilis [2] is given as “moderate activity”. Besides, in the experiment with Bacillus subtilis [2] (setting [11]), the “Diameter of zone of inhibition, B. Subtilis” value amounted to 15 mm. Moreover, the “activity against E. coli when compared with standard drug benzyl penicillin (in words)” value in the experiment with Escherichia coli [3] is recorded as “less activity”. For the same compound, the “Diameter of zone of inhibition, E. coli” value in the experiment with Escherichia coli [3] (setting [11]) worked out at 10 mm. Also, in the experiment with Staphylococcus aureus [4], the “activity against S. aureus when compared with standard drug benzyl penicillin (in words)” value is reported as “moderate activity”. The “Diameter of zone of inhibition, S. auereus” value in the experiment with Staphylococcus aureus [4] (setting [11]) was 21 mm. Moreover, in the experiment with Candida albicans [5], the “inhibition of growth against Candida albicans (in words)” value is recorded as “moderate inhibition of growth”. Further, the “Diameter of zone of inhibition, C. albicans” value with Candida albicans [5] (setting [11]) was 18 mm.
On to `OC(Cn1cncn1)(Cn1cncn1)c1ccc(F)cc1F` [Fluconazole, fluconazole, reference compound], for which the “Diameter of zone of inhibition, P. aeruginosa” value in the experiment on Psuedomonas aeruginosa [1] (setting [11]) was “-”. In the experiment on Bacillus subtilis [2] (setting [11]), the “Diameter of zone of inhibition, B. Subtilis” value is given as “-”. In addition, in the experiment on Escherichia coli [3] (setting [11]), the “Diameter of zone of inhibition, E. coli” value was “-”. Moreover, the “Diameter of zone of inhibition, S. auereus” value with Staphylococcus aureus [4] (setting [11]) was “-”. In addition, the zone of inhibition at 50 µg/mL in the experiment with Candida albicans [5] (Candida albicans, 24 h at 37°, DMF solvent control, read-out: Diameter of zone of inhibition, C. albicans) came to 20 mm.
